Measurements: patent publication US9464058B2 (Hoffmann-La Roche Inc., priority 2012, dated 2016)

How the values were obtained:
human CYP11B2 = target: T1, human CYP11B2 (Homo sapiens, UniProt P19099); experiment: G-402 cellular enzyme assay, human CYP11B2 (aldosterone release, HTRF); assay type: cell-based; conditions: G-402 cells expressing human CYP11B2; 1 μM Deoxycorticosterone; 16 h
T1 construct: expressed in transfected cells
T1 sequence (P19099 25-503): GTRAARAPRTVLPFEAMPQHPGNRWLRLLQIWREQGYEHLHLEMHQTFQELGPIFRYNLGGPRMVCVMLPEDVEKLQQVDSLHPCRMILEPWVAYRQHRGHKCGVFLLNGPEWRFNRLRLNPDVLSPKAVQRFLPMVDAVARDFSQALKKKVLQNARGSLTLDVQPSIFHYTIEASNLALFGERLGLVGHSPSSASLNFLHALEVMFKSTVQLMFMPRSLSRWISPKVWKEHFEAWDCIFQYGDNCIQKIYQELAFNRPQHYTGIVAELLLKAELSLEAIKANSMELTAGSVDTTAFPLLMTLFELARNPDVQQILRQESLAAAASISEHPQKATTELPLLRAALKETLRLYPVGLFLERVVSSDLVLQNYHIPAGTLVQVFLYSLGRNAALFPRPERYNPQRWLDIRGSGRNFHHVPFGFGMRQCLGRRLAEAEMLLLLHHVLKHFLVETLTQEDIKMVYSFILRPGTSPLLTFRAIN
Source text: (§1) Herein we identified the use of the G-402 cell line as a host cell to ectopically express (transiently or stably) enzymes of the CYP11 family. Specifically we developed stable G-402 cells expressing ectopically human CYP11B1, human CYP11B2, human CYP11A1, cynomolgus CYP11B1 or cynomolgus CYP11B2 enzyme activity. Importantly, the identified cell line G-402 expresses co-factors (adrenodoxin and adrenodoxin reductase) important for the activity of the CYP11 family, and no relevant enzyme activity of the CYP11 family (in comparison to H295R cells) was detected in these cells. Therefore the G-402 cell line is uniquely suited as a host cell for the ectopic expression of enzymes from the CYP11 family.
(§2) G-402 cells can be obtained from ATCC(CRL-1440) and were originally derived from a renal leiomyoblastoma.
(§3) The expression plasmids contains the ORF for either human/cyno CYP11B1 or CYP11B2 under the control of a suitable promoter (CMV-promoter) and a suitable resistance marker (neomycin). Using standard techniques the expression plasmid is transfected into G-402 cells and these cells are then selected for expressing the given resistance markers. Individual cell-clones are then selected and assessed for displaying the desired enzymatic activity using 11-Deoxycorticosterone (Cyp11B2) or 11-Deoxycortisol (Cyp11B1) as a substrate.
(§4) G-402 cells expressing CYP11 constructs were established as described above and maintained in McCoy's 5a Medium Modified, ATCC Catalog No. 30-2007 containing 10% FCS and 400 μg/ml G418 (Geneticin) at 37° C. under an atmosphere of 5% CO2/95% air. Cellular enzyme assays were performed in DMEM/F12 medium containing 2.5% charcoal treated FCS and appropriate concentration of substrate (0.3-10 uM 11-Deoxycorticosterone, 11-Deoxycortisol or Corticosterone). For assaying enzymatic activity, cells were plated onto 96 well plates and incubated for 16 h. An aliquot of the supernatant is then transferred and analyzed for the concentration of the expected product (Aldosterone for CYP11B2; Cortisol for CYP11B1). The concentrations of these steroids can be determined using HTRF assays from CisBio analyzing either Aldosterone or Cortisol.
(§5) Inhibition of the release of produced steroids can be used as a measure of the respective enzyme inhibition by test compounds added during the cellular enzyme assay. The dose dependent inhibition of enzymatic activity by a compound is calculated by means of plotting added inhibitor concentrations (x-axes) vs. measured steroid/product level (y-axes). The inhibition is then calculated by fitting the following 4-parameter sigmoidal function (Morgan-Mercer-Flodin (MMF) model) to the raw data points using the least squares method:
(§6) [formula] wherein A is the maximum y value, B is the EC50 factor determined using XLFit, C is the minimum y value and D is the slope value.
(§7) EC50 values for compounds claimed herein were tested with the G402-based assay system described. Cyp11B2 enzyme activity was tested in presence of 1 μM Deoxycorticosterone and variable amounts of inhibitors; Cyp11B1 enzyme activity was tested in presence of 1 μM Deoxycortisol and variable amounts of inhibitors.

human CYP11B1 = target: T2, human CYP11B1 (Homo sapiens, UniProt P15538); experiment: G-402 cellular enzyme assay, human CYP11B1 (cortisol release, HTRF); assay type: cell-based; conditions: G-402 cells expressing human CYP11B1; 1 μM Deoxycortisol; 16 h
T2 construct: expressed in transfected cells
T2 sequence (P15538 25-503): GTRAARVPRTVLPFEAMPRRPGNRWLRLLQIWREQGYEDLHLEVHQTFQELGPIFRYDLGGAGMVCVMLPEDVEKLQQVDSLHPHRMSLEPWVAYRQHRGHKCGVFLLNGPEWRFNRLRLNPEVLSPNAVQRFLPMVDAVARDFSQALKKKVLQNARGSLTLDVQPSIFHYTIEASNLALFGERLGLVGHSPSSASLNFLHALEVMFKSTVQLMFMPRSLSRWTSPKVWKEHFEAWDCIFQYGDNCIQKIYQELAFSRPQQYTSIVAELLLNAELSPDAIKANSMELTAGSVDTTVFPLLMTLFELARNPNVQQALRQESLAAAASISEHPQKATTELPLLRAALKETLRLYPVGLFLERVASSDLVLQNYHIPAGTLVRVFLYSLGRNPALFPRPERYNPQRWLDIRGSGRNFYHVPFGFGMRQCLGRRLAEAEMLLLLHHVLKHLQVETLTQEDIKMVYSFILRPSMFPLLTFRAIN
Source text: as §1, §2, §3, §4, §5, §6, §7

EC50 (human CYP11B2) [nM] | EC50 (human CYP11B1) [nM] | Structure (SMILES)
14.4 | 84.6 | N#Cc1ccc(-n2cncc2C(=O)c2ccc(Cl)c(F)c2)cc1 [Example 94, 4-[5-(4-Chloro-3-fluoro-benzoyl)-imidazol-1-yl]-benzonitrile]
26 | 203 | CC(C)n1cncc1C(=O)c1cccc(C#N)c1 [Example 57, 3-(3-Isopropyl-3H-imidazole-4-carbonyl)-benzonitrile]
2200 | 1290 | CCn1cncc1C(=O)c1ccc(N(C)C(=O)OC(C)(C)C)cc1 [Example 88, [4-(3-Ethyl-3H-imidazole-4-carbonyl)-phenyl]-methyl-carbamic acid tert-butyl ester]
11.7 | 349 | CC(C)n1cncc1C(=O)c1ccc(N(C)C=O)cc1 [Example 93, N-[4-(3-Isopropyl-3H-imidazole-4-carbonyl)-phenyl]-N-methyl-formamide]
65.2 | 673 | Cn1cncc1C(=O)c1cccc(F)c1 [Example 24, (3-Fluoro-phenyl)-(3-methyl-3H-imidazol-4-yl)-methanone]
3.4 | 74.6 | O=C(c1ccc(F)c(F)c1)c1cncn1-c1ccc(Cl)cc1 [Example 97, [3-(4-Chloro-phenyl)-3H-imidazol-4-yl]-(3,4-difluoro-phenyl)-methanone]
98.6 | 2500 | Cn1cncc1C(=O)c1ccc(C#N)cc1F [Example 8, 3-Fluoro-4-(3-methyl-3H-imidazole-4-carbonyl)-benzonitrile]
28.4 | 1530 | CSc1ccc(C(=O)c2cncn2C)cc1 [Example 43, (3-Methyl-3H-imidazol-4-yl)-(4-methylsulfanyl-phenyl)-methanone]
118 | 3500 | COc1ccc(C(=O)c2cncn2C)cc1 [Example 4, (4-Methoxy-phenyl)-(3-methyl-3H-imidazol-4-yl)-methanone]
323 | 448 | CC(C)n1cncc1C(=O)c1ccc(F)c(C#N)c1 [Example 64, 2-Fluoro-5-(3-isopropyl-3H-imidazole-4-carbonyl)-benzonitrile]
7.7 | 187 | Cn1cncc1C(=O)c1ccc(Cl)c(F)c1 [Example 9, (4-Chloro-3-fluoro-phenyl)-(3-methyl-3H-imidazol-4-yl)-methanone]
 | 9880 | Cn1cncc1C(=O)c1ccc(C(C)(C)C)cc1 [Example 30, (4-tert-Butyl-phenyl)-(3-methyl-3H-imidazol-4-yl)-methanone]
49.3 | 151 | Cn1cncc1C(=O)c1ccc(F)cc1 [Example 23, (4-Fluoro-phenyl)-(3-methyl-3H-imidazol-4-yl)-methanone]
 | 12500 | CN(C(=O)OC(C)(C)C)c1ccc(C(=O)c2cncn2C)cc1 [Example 85, Methyl-[4-(3-methyl-3H-imidazole-4-carbonyl)-phenyl]-carbamic acid tert-butyl ester]
62.3 | 195 | Cn1cncc1C(=O)c1ccc(Cl)cc1 [Example 1, (4-Chloro-phenyl)-(3-methyl-3H-imidazol-4-yl)-methanone]
2.7 | 33 | CCn1cncc1C(=O)c1ccc(Cl)c(F)c1 [Example 34, (4-Chloro-3-fluoro-phenyl)-(3-ethyl-3H-imidazol-4-yl)-methanone]

EC50 (human CYP11B2) [nM] | EC50 (human CYP11B1) [nM] | Structure (SMILES)
216 | 1800 | Cn1cncc1C(=O)c1ccc(Cl)cc1Cl [Example 11, (2,4-Dichloro-phenyl)-(3-methyl-3H-imidazol-4-yl)-methanone]
32.6 | 543 | Cn1cncc1C(=O)c1cccc(Cl)c1 [Example 22, (3-Chloro-phenyl)-(3-methyl-3H-imidazol-4-yl)-methanone]
335 | 3440 | CCn1cncc1C(=O)c1ccc(F)c(C#N)c1 [Example 63, 5-(3-Ethyl-3H-imidazole-4-carbonyl)-2-fluoro-benzonitrile]
5.6 | 199 | N#Cc1ccc(-n2cncc2C(=O)c2ccc(Cl)c(Cl)c2)cc1 [Example 96, 4-[5-(3,4-Dichloro-benzoyl)-imidazol-1-yl]-benzonitrile]
0.7 | 3.3 | CC(C)n1cncc1C(=O)c1ccc(Cl)c(F)c1 [Example 39, (4-Chloro-3-fluoro-phenyl)-(3-isopropyl-3H-imidazol-4-yl)-methanone]
575 | 11300 | Cn1cncc1C(=O)c1ccc(F)c(C#N)c1 [Example 45, 2-Fluoro-5-(3-methyl-3H-imidazole-4-carbonyl)-benzonitrile]
0.8 | 4.5 | CC(C)n1cncc1C(=O)c1ccc(C#N)cc1 [Example 6, 4-(3-Isopropyl-3H-imidazole-4-carbonyl)-benzonitrile]
22.8 | 364 | CCSc1ccc(C(=O)c2cncn2C2CC2)cc1 [Example 70, (3-Cyclopropyl-3H-imidazol-4-yl)-(4-ethylsulfanyl-phenyl)-methanone]
7.4 | 89.3 | Cn1cncc1C(=O)c1ccc(C#N)c(Cl)c1 [Example 42, 2-Chloro-4-(3-methyl-3H-imidazole-4-carbonyl)-benzonitrile]
0.5 | 1.8 | CC(C)n1cncc1C(=O)c1ccc(Cl)c(Cl)c1 [Example 14, (3,4-Dichloro-phenyl)-(3-isopropyl-3H-imidazol-4-yl)-methanone]
10.8 | 70.3 | CC(C)n1cncc1C(=O)c1ccc(C#N)cc1F [Example 10, 3-Fluoro-4-(3-isopropyl-3H-imidazole-4-carbonyl)-benzonitrile]
447 | 2210 | N#Cc1cc(C(=O)c2cncn2C2CC2)ccc1F [Example 66, 5-(3-Cyclopropyl-3H-imidazole-4-carbonyl)-2-fluoro-benzonitrile]
5.3 | 253 | CCSc1ccc(C(=O)c2cncn2C(C)C)cc1 [Example 71, (4-Ethylsulfanyl-phenyl)-(3-isopropyl-3H-imidazol-4-yl)-methanone]
3530 |  | Cn1cncc1C(=O)c1ccc(S(C)(=O)=O)cc1 [Example 47, (4-Methanesulfonyl-phenyl)-(3-methyl-3H-imidazol-4-yl)-methanone]
390 |  | Cn1cncc1C(=O)c1ccc(SC(F)(F)F)cc1 [Example 73, (3-Methyl-3H-imidazol-4-yl)-(4-trifluoromethylsulfanyl-phenyl)-methanone]
923 |  | CC(=O)N(C)c1ccc(C(=O)c2cncn2C)cc1 [Example 55, N-Methyl-N-[4-(3-methyl-3H-imidazole-4-carbonyl)-phenyl]-acetamide]
